In PMC6337261, “Short Peptides with Uncleavable Peptide Bond Mimetics as Photoactivatable Caspase-3 Inhibitors” (Molecules, 2019):

Tests used:
caspase-3 [1] = test: Gel-based competitive ABPP on recombinant caspase-3; format: biochemical; conditions: 10 μM compound, PBS with 1 mM DTT, fluorescent ABP read-out on gel
Experimental: To check whether our probes function as inhibitors, competitive ABPP [28] was performed. Recombinant caspase-3 was incubated with probes 9a–10c, 11a and 12a with or without irradiation at 365 nm, followed by labeling of residually active caspase-3 with the fluorescent, caspase-directed activity-based probe (ABP) SV149, a tetramethylrhodamine derivative of KMB-01 [29]. Caspase activity itself was not affected by UV irradiation, as shown by bands of equal intensity with and without UV light (Figure 2A). […] To confirm inhibition, we also performed substrate cleavage assays using the fluorogenic aminomethyl coumarin substrate Ac-DEVD-AMC. […] Inhibition of active caspases could also be achieved in an apoptotic cell lysate (Figure 2D).
(§1) Caspase-3, produced in E. coli and purified as described before, was reacted in PBS with 1 mM DTT. Samples were combined with the indicated probe and irradiated with a handheld UV lamp at 365 nm for 30 min at room temperature. For competition experiments with ‘pre-activation,’ the indicated probes were irradiated for 30 min prior to addition to caspase-3, and incubated for an additional 30 min. Next, ABP 13 was added (final concentration 1 μM) to label residual caspase-3 activity. The samples were incubated for 30 min at room temperature, after which 1/3rd volume of 4× Laemmli buffer was added. Samples were heated at 95 °C for 2 min and resolved by 15% SDS-PAGE. Gels were scanned using a Typhoon Trio+ fluorescent scanner with excitation at 532 nm and an emission filter of 580 nm. Gel images were processed with ImageJ (background subtraction with rolling ball radius of 50 pixels and automated contrast adjustment).
Figure 2 Inhibition of caspase-3. (A) Competitive activity-based protein profiling (ABPP) experiments using ψ(CH2NH) or triazolo peptide derivatives 9–12 with or without irradiation. Compounds 9a–12a were used at 10 μM final concentration, 9b, 9c, 10b and 10c at 100 μM. Inh = caspase inhibitor biotin-DEVD-AOMK, used at 100 nM concentration. (B) Representative progress curves of fluorescence produced by Ac-DEVD-AMC (50 μM) cleavage by caspase-3, irradiated with or without 10 μM of the indicated compounds. (C) Bar graph of residual caspase-3 activity of replicate experiments (n = 2) of those in (B). (D) Inhibition of executioner’s caspase-3 and -7 in lysates of HEK293 cells, treated with cytochrome c/dATP to induce apoptosis.

caspase-3 [2] = test: Competitive ABPP with UV pre-activation of the probes; format: biochemical; conditions: compound irradiated at 365 nm for 30 min, light source removed, then added to caspase-3 for 30 min; fluorescent ABP read-out
Experimental: (§2) Compounds were irradiated with UV light of 365 nm for 30 min and after removal of the light source added to caspase-3. Residual caspase activity was measured by using a fluorescent caspase ABP as in our previous experiments above.
as §1
Figure 3 Non-covalent inhibition of caspase-3 by compounds 9 and 10. (A) Fluorescent labeling of caspase-3 by ψ(CH2NH) peptides 9–10 and triazolo peptides 11–12. […] (B) Deconvoluted ESI-MS of caspase-3. (C) Deconvoluted ESI-MS of caspase-3 after incubation with covalent activity-based probe (ABP) 13. Note that the active site, located on the large subunit, is modified. (D) Deconvoluted ESI-MS of caspase-3 after irradiation in the presence of benzophenone ψ(CH2NH) 10a, not resulting in covalent modification. […] (F) Structures of ψ(CH2NH) peptides 14 and 15 without photocrosslinker. (G) UV irradiation of ψ(CH2NH) peptides 14 and 15 in the presence of benzophenone leads to inhibition of caspase-3, as monitored by competitive ABPP. […] Ac-DEVD-aldehyde (100 nM) was used as a control compound, whereas 9a and 10a (10 μM) were irradiated for 10 min and reacted with sodium bisulfite for an additional 20 min before 30 min incubation with caspase-3 and read-out with a fluorescent caspase ABP.

[3] = LC-MS analysis of probes before and after UV irradiation; format: physicochemical; conditions: irradiation at 365 nm, gradient 10% to 95% acetonitrile with 0.1% formic acid
Experimental: as §2
Although this points towards a cyclization rather than reaction with a water molecule, it is not clear whether it leads to a potent caspase inhibitor. […] Therefore, cyclization seemed improbable, as this would most likely lead to a shift in retention time. We hypothesized that irradiation could potentially lead to oxidation of a very small amount of the ψ(CH2NH) moiety with benzophenone as a photosensitizer, resulting in minute quantities of aldehydes that were not detected on LC-MS, but were sufficient for caspase-3 inhibition. Oxidation of secondary amines under influence of benzophenone has been reported before. […] Note that triazoles cannot undergo this transformation, further explaining their inactivity. The oxidation hypothesis was supported by an experiment in which ψ(CH2NH) peptides 14 and 15, not containing a benzophenone, were irradiated in the presence of 1 eq of spiked-in benzophenone (Figure 3G–I).
All materials were purchased from Sigma Aldrich GmbH (GmbH, Darmstadt, Germany), Carl Roth GmbH + Co. KG (Karlsruhe, Germany), Thermo Fischer Scientific Inc. (Dreieich, Germany), Rapp Polymere GmbH (Tübingen, Germany), Applichem GmbH (Darmstadt, Germany), VWR International GmbH (Darmstadt, Germany), Merck KGaA (Darmstadt, Germany), CreoSalus Inc. (Louisville, KY, USA), and Iris Biotech GmbH (Marktredwitz, Germany) and were used as received, unless otherwise noted. TLC was performed on pre-coated ALUGRAM SIL G plates with detection by a handheld UV lamp (254 nm) and subsequent staining with potassium permanganate, p-anisaldehyde, ninhydrin or cerium ammonium molybdate. LC-MS analysis was performed on a Thermo LCQ Fleet HPLC-MS/MS system using a gradient of 10% to 95% acetonitrile containing 0.1% formic acid. NMR spectra were recorded on a Bruker Avance DRX 400 spectrometer with tetramethylsilane as internal standard. High resolution ESI-FTMS was performed on a Thermo Scientific LTQ Orbitrap Velos Pro mass spectrometer.

Inhibition of caspase-3 activity (caspase ABP labeling) (caspase-3 [1]; irradiated at 365 nm for 30 min at room temperature): complete inhibition
Inhibition of caspase-3 activity (caspase ABP labeling) (caspase-3 [1]; non-irradiated): no decrease in caspase ABP labeling
Inhibition of caspase-3 after UV pre-activation of compound (caspase-3 [2]): still inhibited
Change of probe upon UV irradiation (LC-MS before and after) [3]: did not show obvious changes
Substance: Hexynoyl-Asp-Glu-Val-Aspψ(CH2NH)-Ala-Bpa-NH2 [10a]
